Common to all, as to assay type: cell-based, human
Assay [1] has as its system p65 component of NF-κB. The experiment in a line: Immunohistochemical localization of p65 in M1619 cells. To be noted: 24 hours, catalase 3,000 U/ml, apocynin 150 μg/ml, dicumarol 250 μM. The protocol: The effect of antioxidants on nuclear activation of NF-κB was studied by incubating near confluent (70%) cell cultures with antioxidant treatments for 1-48 hours. Nuclear protein was harvested, and EMSAs were performed using DNA consensus binding sequences, or nuclear translocation of the p65 component of NF-κB was studied by immunoperoxidase staining, as outlined below.
Immunohistochemical Localization of NF-κB. Cells grown on sterile coverslips and treated with catalase 3,000 U/ml, apocynin 150 μg/ml, or DPBS or DMSO vehicles for 24 h were fixed for 20 min on ice with 4% paraformaldehyde in DPBS with protease inhibitors, PI [Sigma protease inhibitor cocktail, 10 μl/ml, containing 4-(2-aminoethyl)benzensulfonyl fluoride (AEBSF), pepstatin A, trans-epoxysuccinyl-L-leucylamindo-(guanidino)butane (E-64), bestatin, leupeptin and aprotinin]. Cells were permeabilized by treating for 2 min with 0.1% NP-40 in DPBS/PI, washed once with cold DPBS and fixed as before for 10 min. Coverslips were incubated in 3% hydrogen peroxide for 30 min to suppress any remaining peroxidase, and washed three times in cold DPBS. The permeabilized and fixed cells were blocked for 2 hours with 2% BSA in DPBS on ice and incubated overnight at 4° C. with 1 μg/ml of anti-p65 antibody (Santa Cruz) diluted in 0.1% BSA/DPBS. Unbound anti-p65 was washed away with 2% BSA/DPBS and bound antibody was stained by incubation with biotinylated goat anti-rabbit immunoglobulin diluted 1:50 in 0.1% BSA/DPBS for 45 min on ice. Excess secondary antibody was washed away by 3 washes with 2% BSA/DPBS on ice. After washing, the cells were incubated with a streptavidin-biotin-peroxidase complex at room temperature for 1 hr, washed again, and incubated in 0.03% wt/vol 3-3′diaminobenzidine with 0.003% vol/vol hydrogen peroxide until a brown reaction product could be seen. Cells were then counterstained with eosin and mounted on glass slides before viewing under light microscopy. […]

Assay [2] has as its system M1619 cells. Put plainly: Apoptosis by TdT fluorescein end-labeling (FragEL). Conditions: 3000 U/ml catalase for 24 hours; vs DNase-treated positive control. The protocol: Measurement of Cytotoxicity and Apoptosis. To assess for cytotoxicity, near confluent cells cultured in 24 well plates were exposed to antioxidants or withdrawn from serum for 24 hours. Medium was removed, and replaced with Dulbecco=s phosphate buffered saline (DPBS) containing 0.1% trypan blue. […] To assess for apoptosis, cells grown on glass slides were treated with antioxidants for 24 hours. Apoptosis was studied by terminal deoxynucleotidyl transferase (TdT) dependent 3′BOH fluorescein end-labeling of DNA fragments, using a Fluorescein-FragEL™ DNA fragmentation detection kit (Oncogene Research Products, Cambridge, Mass.). DNase-treated fixed cells were used as a positive control.
Apoptosis was studied by terminal deoxynucleotidyl transferase (TdT) dependent 3′BOH fluorescein end-labeling of DNA fragments, using a Fluorescein-FragE™ DNA fragmentation detection kit (Oncogene Research Products).

Assay [3] has as its system Melanoma M1585 cells. The experiment in a line: MTT proliferation assay, M1585 melanoma. To be noted: Catalase 3000 U/ml; 10% FBS; 48 hours; mean±SE vs control. The protocol:
Measurement of Proliferation in Cell Cultures. […] This assay empirically distinguishes between dead and living cells.
Cell Culture Treatments. The effect of antioxidant treatments on proliferation of malignant cell lines was studied in cultures stimulated with 10% FBS. Cell numbers were quantitated by the MTT assay 24-72 hours later. In some experiments, antioxidants were added immediately after cells were plated. In other experiments, cells were plated and allowed to grow for 24 hours before fresh media with antioxidants was added, and cell numbers were studied by the MTT assay 48 hours later.
Cells stimulated with 10% FBS were plated at a density of 50,000 cells per well. DMSO and antioxidants were added to cell wells at the indicated concentrations. […] Each value represents a mean of at least 4 experiments.
In general terms: Tetrazolium dyes change colour on reduction, which living cells bring about.

Catalase: the “anti-p65 staining in nuclei (nuclear translocation of NF-κB)” value in assay [1] was “little staining in nuclei”. Further, the Induction of apoptosis result in assay [2] is on record as “did not induce apoptosis”. Moreover, the “Percent Growth Inhibition” value in assay [3] came out at 80 ± 1.

The record behind these values is patent publication US20070142462A1, “Method of Treating Cancer” (The University of Utah, priority 2000, published 2007).
